ChEMBL document CHEMBL5724558, “Image-based profiling of drug vulnerabilities in CRC organoids” (2024)
Values joined by “and” are separate entries in the source; they are usually repeats but may differ in a detail not shown here. Identical values can stand only once.

How the values were obtained:
Type in all cases: functional, Homo sapiens
Parameters in all cases: dose or concentration left out as unconfirmed
[1] = tested on: Colon cancer organoid; assay: (§1) Image-based profiling of donated chemical probes and chemogenomic kinase set in O06 CRC organoid. Image analysis is performed on the sum area metric, and the data were normalized to the DMSO control. After imaging the organoid viability is measured using the OneGloEX Luciferase Assay System. The normalized viability data and sum area are reported.
[2] = tested on: Colon cancer organoid; assay: as §1, with “O09” for “O06”
[3] = tested on: Colon cancer organoid; assay: as §1, with “O21” for “O06”

`Cc1ccccc1Oc1cc(-n2c(=O)cc(C(F)(F)F)[nH]c2=O)c2ccccc2c1Cl` [BAY-069] was tested, and the “Cell Viability” value ([1]; Replication number 1) was 107.213% and 122.915%, the “Cell Viability” value ([1]; Replication number 2) was 117.719% and 113.888% and the “Cell Viability” value ([2]; Replication number 1) was 112.474% and 107.103%. For the same molecule, the “Cell Viability” value ([2]; Replication number 2) was 148.882% and 102.498%, the “Cell Viability” value ([3]; Replication number 1) was 99.7794% and 121.135% and the “Cell Viability” value ([3]; Replication number 2) was 101.27% and 93.8137%.
